One assay deals with T1, Bile acid receptor (Homo sapiens, UniProt Q96RI1).
T1 sequence (Q96RI1 whole entry): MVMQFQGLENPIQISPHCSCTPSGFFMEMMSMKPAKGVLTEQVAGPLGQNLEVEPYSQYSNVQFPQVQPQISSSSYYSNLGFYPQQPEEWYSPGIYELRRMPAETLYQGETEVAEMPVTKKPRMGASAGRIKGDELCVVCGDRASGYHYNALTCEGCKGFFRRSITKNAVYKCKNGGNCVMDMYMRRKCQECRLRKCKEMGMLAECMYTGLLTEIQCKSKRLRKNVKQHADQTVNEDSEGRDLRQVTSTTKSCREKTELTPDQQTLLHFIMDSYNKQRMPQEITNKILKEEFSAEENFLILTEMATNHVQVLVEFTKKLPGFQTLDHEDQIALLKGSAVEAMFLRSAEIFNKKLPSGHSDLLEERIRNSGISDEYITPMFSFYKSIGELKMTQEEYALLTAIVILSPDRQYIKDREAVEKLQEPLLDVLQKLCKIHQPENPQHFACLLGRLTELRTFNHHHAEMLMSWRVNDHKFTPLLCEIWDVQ
Briefly: Inhibition of GW4064-induced fluorecein-labeled SRC2-2 coactivator recruitment in GST-tagged FXR LBD (unknown origin) by Lanthascreen TR-FRET assay.

Assay [1] in a line: Antagonist activity at human FXRalpha expressed in human Hep3B cells assessed as inhibition of CDCA-induced FXR response element driven luciferase activity after 24 hrs. Type of assay: cell-based.
Assay [2] has as its target T2, Bile acid receptor (Homo sapiens) (UniProt Q96RI1).
T2 sequence (whole entry): T1 sequence (Q96RI1 whole entry)
Briefly: Antagonist activity at FXR in human Hep3B cells assessed as inhibition of CDCA-induced SHP expression level at 0.2 to 5 uM after 24 hrs by RT-PCR method. In kind it is cell-based.

Assay [3] addresses T2, Bile acid receptor (Homo sapiens). Briefly: Antagonist activity at FXR in human Hep3B cells assessed as inhibition of CDCA-induced decrease in CYP7A1 expression level at 0.2 to 5 uM after 24 hrs by RT-PCR method. In kind it is cell-based.
The target of assay [4] is T3, Retinoic acid receptor RXR-alpha (Homo sapiens) (UniProt P19793).
T3 sequence (whole entry): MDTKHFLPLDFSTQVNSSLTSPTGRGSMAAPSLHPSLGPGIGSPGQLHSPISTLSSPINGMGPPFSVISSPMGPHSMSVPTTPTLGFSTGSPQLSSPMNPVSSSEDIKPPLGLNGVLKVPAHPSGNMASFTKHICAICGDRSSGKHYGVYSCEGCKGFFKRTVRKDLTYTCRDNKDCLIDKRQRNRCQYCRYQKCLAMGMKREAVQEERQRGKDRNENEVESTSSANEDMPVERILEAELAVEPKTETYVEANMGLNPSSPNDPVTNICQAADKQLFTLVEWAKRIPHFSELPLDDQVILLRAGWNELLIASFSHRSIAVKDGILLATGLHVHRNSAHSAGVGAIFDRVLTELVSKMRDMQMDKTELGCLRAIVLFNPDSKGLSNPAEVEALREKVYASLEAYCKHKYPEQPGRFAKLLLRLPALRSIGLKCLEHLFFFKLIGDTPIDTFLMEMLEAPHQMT
Briefly: Antagonist activity at human RXRalpha expressed in human Hep3B cells assessed as inhibition of 9-cis-retinoic acid-induced RXR response element driven luciferase activity at 100 uM after 24 hrs. Type of assay: cell-based.

The mark [5] stands for this setting: Homo sapiens, Hep3B, 24 h, read-out: IC50.

Active and inactive are the calls of the source. No cut-off for these calls is given here.

Drawing on ChEMBL document CHEMBL3992546, “Discovery and optimization of benzimidazole derivatives as a novel chemotype of farnesoid X receptor (FXR) antagonists” (Bioorg Med Chem, 2017), this text covers IC50 and inhibition for 24 compounds.

As usually defined, the IC50 is the concentration that gives 50% inhibition. For `CC(C)C[C@@H](c1nc2ccc(C(=O)O)cc2n1C)N1C(=O)CN(c2ccc(Oc3ccc(Cl)cc3)cc2)C1=O`, the figures for the 50% inhibitory concentration (IC50) (against Bile acid receptor; in assay [1] (setting [5])) were 2.56 µM and 4.1 µM, respectively.

`C[C@@H](c1nc2ccc(C(=O)O)cc2n1C)N1C(=O)CN(c2ccc(Oc3ccccc3)cc2)C1=O`: the IC50 at Bile acid receptor is 10.4 µM; in assay [1] (setting [5]), more than 300 µM.

As to `Cn1c([C@@H](Cc2ccccc2)N2C(=O)CN(c3ccc(Oc4ccccc4)cc3)C2=O)nc2ccc(C(=O)O)cc21`, the figures for the IC50 (at Bile acid receptor; in assay [1] (setting [5])) were 87.5 µM and 13.9 µM, respectively.

Take `CC(C)C[C@@H](c1nc2ccc(C(=O)O)cc2n1C)N1C(=O)CN(c2ccc(Oc3ccccc3)cc2)C1=O`: the IC50 at Bile acid receptor was determined as 43.4 µM; in assay [1] (setting [5]), 5.6 µM.

With `COc1ccc(Oc2ccc(N3CC(=O)N([C@@H](CC(C)C)c4nc5ccc(C(=O)O)cc5n4C)C3=O)cc2)cc1`, the results for the IC50 (against Bile acid receptor; in assay [1] (setting [5])) were 75.3 µM and 4.5 µM, respectively.

As to `CC[C@@H](c1nc2ccc(C(=O)O)cc2n1C)N1C(=O)CN(c2ccc(Oc3ccccc3)cc2)C1=O`, the IC50 against Bile acid receptor was 209 µM; in assay [1] (setting [5]) it was 24.8 µM.

On to `Cn1c([C@@H](N2C(=O)CN(c3ccc(Oc4ccccc4)cc3)C2=O)C(C)(C)C)nc2ccc(C(=O)O)cc21`, for which the IC50 was determined as 77.1 µM against Bile acid receptor and 6.3 µM in assay [1] (setting [5]).

Turning to `CC(C)C[C@@H](c1nc2ccc(C(=O)O)cc2n1C)N1C(=O)CN(c2ccc(F)cc2)C1=O`, the IC50 was 399 µM against Bile acid receptor and “Not Active” in assay [1].

In the case of `Cc1ccc2nc([C@H](CC3CCCCC3)N3C(=O)CN(c4ccc(Oc5ccccc5)cc4)C3=O)n(C)c2c1`, the figures for the IC50 (on Bile acid receptor; in assay [1] (setting [5])) were 126 µM and 0.0012 µM, respectively. In addition, the inhibition result in assay [2] and in assay [3] was “Active” each time. Also, the inhibition result in assay [4] was “inactive”.

In the case of `CC(C)C[C@@H](c1nc2ccc(C(=O)O)cc2n1C)N1C(=O)CN(c2ccc(-c3ccccc3)cc2)C1=O`, the IC50 at Bile acid receptor was found to be 23.1 µM; in assay [1] (setting [5]), 28.1 µM.

As to `CC(C)C[C@@H](c1nc2ccc(C(=O)O)cc2n1C)N1C(=O)CN(c2ccc(OC3CCCCC3)cc2)C1=O`, the 50% inhibitory concentration (IC50) turned out to be 126 µM against Bile acid receptor and 55.2 µM in assay [1] (setting [5]).

For the compound `Cc1ccc2nc([C@H](CC(C)C)N3C(=O)CN(c4ccc(Oc5ccccc5)cc4)C3=O)n(C)c2c1`, the values for the IC50 (on Bile acid receptor; in assay [1] (setting [5])) were 65.6 µM and 0.175 µM, respectively.

Turning to `Cn1c([C@H](CC2CCCCC2)N2C(=O)CN(c3ccc(Oc4ccccc4)cc3)C2=O)nc2ccc(C(=O)O)cc21`, the values for the IC50 (against Bile acid receptor; in assay [1] (setting [5])) were 24.4 µM and 2 µM, respectively.

`CC[C@H](C)[C@@H](c1nc2ccc(C(=O)O)cc2n1C)N1C(=O)CN(c2ccc(Oc3ccccc3)cc2)C1=O`: the values for the IC50 (against Bile acid receptor; in assay [1] (setting [5])) were 102 µM and 3.8 µM, respectively.

Consider `CC(C)[C@H](c1nc2ccc(C(=O)O)cc2n1C)N1C(=O)CN(c2ccc(Oc3ccccc3)cc2)C1=O`, for which the results for the IC50 (at Bile acid receptor; in assay [1] (setting [5])) were 118 µM and 100 µM, respectively.

Consider `CC(C)C[C@H](c1nc2ccc(C(=O)O)cc2n1C)N1C(=O)CN(c2ccc(Oc3ccccc3)cc2)C1=O`, for which the IC50 against Bile acid receptor is 6.6 to 66.6 µM; in assay [1] (setting [5]), 33.6 µM.

With `CC(C)C[C@@H](c1nc2ccc(C(=O)O)cc2n1C)N1CCN(c2ccc(Oc3ccccc3)cc2)C1=O`, the figures for the IC50 (against Bile acid receptor; in assay [1] (setting [5])) were 28.5 µM and 5.7 µM, respectively.

With `Cn1c([C@H](Cc2ccccc2)N2C(=O)CN(c3ccc(Oc4ccccc4)cc3)C2=O)nc2ccc(C(=O)O)cc21`, the IC50 against Bile acid receptor turned out to be 35.2 µM; in assay [1] (setting [5]) it was 6.4 µM.

Take `CC(C)C[C@@H](c1nc2ccc(C(=O)O)cc2n1C)N1C(=O)CN(c2cccc(Oc3ccccc3)c2)C1=O`: the IC50 at Bile acid receptor was 18.2 µM; in assay [1] (setting [5]) it was 9.9 µM.

Regarding `C/C=C1\C(=O)C[C@H]2[C@@H]3CCC4=CC(=O)CC[C@]4(C)[C@H]3CC[C@]12C` [GUGGULSTERONE], the half-maximal inhibitory concentration (IC50) in assay [1] (setting [5]) was found to be 2 µM.

Take `CC(C)C[C@@H](c1nc2cc(C(=O)O)ccc2n1C)N1C(=O)CN(c2ccc(Oc3ccccc3)cc2)C1=O`: the results for the IC50 (against Bile acid receptor; in assay [1] (setting [5])) were 113 µM and 18.2 µM, respectively.

On to `CC(C)C[C@@H](c1nc2ccc(C(=O)O)cc2n1C)N1C(=O)N(c2ccc(Oc3ccccc3)cc2)C(C)(C)C1=O`, for which the figures for the IC50 (against Bile acid receptor; in assay [1] (setting [5])) were 105 µM and 24.4 µM, respectively.

Take `CC(C)C[C@@H](c1nc2ccc(C(=O)O)cc2n1C)N1CC(=O)N(c2ccc(Oc3ccccc3)cc2)CC1=O`: the IC50 is 417 µM against Bile acid receptor and “Not Active” in assay [1].

With `CC(C)[C@@H](c1nc2ccc(C(=O)O)cc2n1C)N1C(=O)CN(c2ccc(Oc3ccccc3)cc2)C1=O`, the IC50 was 174 µM on Bile acid receptor and 10.1 µM in assay [1] (setting [5]).
